Experimental data taken from patent publication US20230158034A1, “CO-TREATMENT WITH CDK4/6 AND CDK2 INHIBITORS TO SUPPRESS TUMOR ADAPTATION TO CDK2 INHIBITORS” (Pfizer Inc., priority 2020, published 2023).

How the values were obtained:
[1] = system: CDK2 T-loop phosphorylation, Cyclin E1, p21; experiment: Western blots of palbociclib-treated lung tumors; type: in vivo, mouse; settings: palbociclib 70 mg/kg QD for 28 days
Description: (§1) To test the potential compensatory relationship between CDK2 and CDK4/6 in vivo, an established mouse lung tumor model driven by KRAS^G12V and TRP53 mutations was used. Kras^+/LSLG12V, Trp53^L/L mice intra-nasally infected with adenoviral particles encoding Cre recombinase developed lung tumors with a latency of 5 months. Once tumor development was detected by CT scans, animals were treated with either vehicle or palbociclib (70 mg/kg QD) for 28 days and tumor volumes were subsequently measured by CT scans at the end of the treatment period.
For western blots in FIG. 7B, protein extraction was performed in protein lysis buffer (50 mM Tris-HCl pH 7.4, 150 mM NaCl, 0.5% NP-40) supplemented with a cocktail of protease and phosphatase inhibitors (complete Mini, Roche, 11836153001; Phosphatase Inhibitor Cocktail 2 and 3, Sigma, P5726 and P0044). Protein concentrations were measured using Bradford (Bio-Rad) method. […] of protein extracts obtained from tumor tissue were separated on NUPAGE™ 4-12% Bis-Tris Midi gels (Invitrogen), transferred to a nitrocellulose membrane (GE Healthcare) and blotted with primary antibodies. Primary antibodies were detected with goat secondary antibodies directed against mouse or rabbit IgGs (HRP, Dako, and Alexa Fluor 680, Invitrogen) and visualized with ECL Western Blot detection solution (GE Healthcare).

[2] = system: Kras^+/LSLG12V; Trp53^L/L lung tumors; experiment: Mouse lung tumor model, tumor volume by CT scans; type: in vivo
Description: as §1
Mice: Kras^+/LSLG12V Trp53^L/L and Cdk2^−/− mice have been previously described (Guerra et al., 2003; Jonkers et al., 2001; Ortega et al., 2003). Compound mice using the following transgenes: Kras^+/LSLG12V, (Guerra et al., 2003); Trp53^L/L (Lee et al., 2012), and Cdk2^−/− (Ortega et al., 2003) were generated for this study. All animal experiments were approved by the Ethical Committees of the Spanish National Cancer Research Centre (CNIO), the Carlos III Health Institute and the Autonomous Community of Madrid (PROEX 270/14) and were performed in accordance with the guidelines stated in the International Guiding Principles for Biomedical Research Involving Animals, developed by the Council for International Organizations of Medical Sciences (CIOMS). Mice were housed in specific-pathogen-free conditions at CNIO's Animal Facility (AAALAC, JRS:dpR 001659). Female and male mice were used for the experiments. All mice were genotyped at the CNIO's Genomic Unit. […]
Micro CT imaging: Image studies were done by the Molecular Imaging Core Unit at the CNIO. […] Tumor volume was calculated as follows: (short axis x short axis x long axis/2).
Pharmacological treatment in mice: Kras^+/LSLG12V; Trp53^L/L; Cdk2^−/− and Kras^+/LSLG12V; Trp53^L/L; Cdk2^+/+ mice were infected with 10^6 pfu of Ad-Cre. Once tumors were detected by CT, mice harboring at least one tumor bigger than 3 mm^3 were enrolled in the different treatment groups. […] Drug efficacy was monitored by CT measurements.

[3] = Half-life of PF3600 in cells; type: in vitro ADME

| SMILES | CDK2 T-loop phosphorylation and Cyclin E1 in tumors (western blot) [1] | p21 in tumors (western blot) [1] | tumor size ([2]; palbociclib 70 mg/kg QD for 4 weeks, Trp53^L/L, Cdk2^−/− mice, p=0.037) | tumor volume fold change vs vehicle ([2]; palbociclib 70 mg/kg QD for 28 days, Trp53^L/L mice (Cdk2^+/+)) | tumor volumes ([2]; PF3600 50 mg/kg BID for 4 weeks, Trp53^L/L mice) | half-life [3] [h] |
| --- | --- | --- | --- | --- | --- | --- |
| CC(=O)c1c(C)c2cnc(Nc3ccc(N4CCNCC4)cn3)nc2n(C2CCCC2)c1=O [palbociclib] | upregulation of CDK2 T-loop phosphorylation and Cyclin E1 | significant downregulation of the CDK inhibitor p21 | significantly reduced tumor size | no significant reduction in tumor burden | – | – |
| C[C@@]1(O)CCC[C@H]1n1c(=O)c(C(F)F)cc2cnc(NC3CCN(S(C)(=O)=O)CC3)nc21 [PF3600, 6-(difluoromethyl)-8-[(1R,2R)-2-hydroxy-2-methylcyclopentyl]-2-{[1-(methylsulfonyl)-piperidin-4-yl]amino}pyrido[2,3-d]pyrimidin-7(8H)-one] | – | – | – | – | significantly reduced tumor volumes | ~30 |
